In the METLIN SMRT retention time set (Domingo-Almenara et al. 2019):

Assay: gradient 5% acetonitrile 3 min, to 50% in 2 min, to 85% in 15 min, held 3 min, 100 µL/min
Details: column: Zorbax Extend-C18 2.1 x 50 mm; eluents: water / acetonitrile, 0.1% formic acid
How it was run: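 Pure standards were run in mixtures of ~100 molecules by HPLC coupled to a quadrupole time-of-flight mass spectrometer. The column was a Zorbax Extend-C18 (2.1 × 50 mm, 1.8 μm) at 100 μL/min, with water and acetonitrile each containing 0.1% formic acid, in positive and negative ionization mode. Dead and dwell volumes were 40 μL and 900 μL. Retention time was taken from computationally picked adduct peaks, each manually inspected, with data collected over 3 months.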

## O=C(NCC1CCCO1)NC1CCN(c2nc3cccnc3n(Cc3ccccc3)c2=O)CC1 (configuration not stated)
  RP-LC retention time: 859 s

## CCCc1noc(-c2ccnc(-n3cnc(C(=O)NC4CCCCC4)c3)c2)n1
  RP-LC retention time: 973 s

## CC(C)c1nncn1C1CCN(S(=O)(=O)c2ccccc2Cl)CC1
  RP-LC retention time: 716 s

## c1ccc2c(c1)c(-c1noc(-c3ccncc3)n1)nn2CCN1CCCCC1
  RP-LC retention time: 642 s

## Cc1nn(C)c(C)c1CCCN(C)C(=O)c1cccc(N2CCNC(c3ccccc3)C2)n1 (configuration not stated)
  RP-LC retention time: 558 s

## CC(=O)N1CCC(C(=O)NCc2nn(Cc3ccccc3)c3ccccc23)CC1
  RP-LC retention time: 728 s

## CCNC(=O)c1cn(-c2ccc(SCC(=O)Nc3ccc4c(c3)OCCO4)nn2)cn1
  RP-LC retention time: 637 s

## CCN(CC)c1nc2cc(C(=O)OC)ccc2c(=O)n1-c1cccc(OC)c1
  RP-LC retention time: 1110 s

## Cc1ccc(Cl)c2c1NC(=O)C2(O)CC(=O)c1ccccc1 (configuration not stated)
  RP-LC retention time: 760 s

## CC(C)(C)c1ccc(-c2noc(Cn3c(=O)n(Cc4ccccc4)c(=O)c4sccc43)n2)cc1
  RP-LC retention time: 1330 s

## O=C(NCC1CCN(S(=O)(=O)C2CC2)CC1)c1cc(=O)c2ccccc2o1
  RP-LC retention time: 674 s

## CS(=O)(=O)N(C1CCOCC1)C1CN(C(=O)COc2ccccc2)C1
  RP-LC retention time: 692 s

## CC(C)n1c(=O)sc2cc(S(=O)(=O)N3CCC(C(=O)N(C)Cc4ccccc4)CC3)ccc21
  RP-LC retention time: 997 s

## CS(=O)(=O)c1ccc2nc(NC(=O)C3COCC(=O)N3Cc3ccccc3)sc2c1 (configuration not stated)
  RP-LC retention time: 649 s

## COC(=O)c1ccc(N2C=C(C#N)S(=O)(=O)c3ccc(Cl)cc32)cc1
  RP-LC retention time: 954 s

## Cc1cccc(NC(=O)CN2CCC(COCc3ccccc3)CC2)c1C
  RP-LC retention time: 610 s

## Cc1oc(C2CCN(C(=O)COc3ccccc3)CC2)nc1C(=O)N1CCCCC1
  RP-LC retention time: 796 s

## NS(=O)(=O)c1ccc(CCNC(=O)C2CCCN(c3nc4ccccc4[nH]3)C2)cc1 (configuration not stated)
  RP-LC retention time: 577 s

## CCC(C(=O)Nc1c(-c2ccc(OC)cc2)nc2cc(C)ccn12)c1ccccc1 (configuration not stated)
  RP-LC retention time: 713 s

## COc1ccc(OC)c(CNC(=O)c2c(N3CCCC3=O)c3cc(OC)ccc3n2C)c1
  RP-LC retention time: 849 s

## Cc1ccc(-c2csc(Cc3nc(-c4ccc(C)cc4)no3)n2)cc1
  RP-LC retention time: 1320 s

## O=C(Nc1ccc(F)cc1F)Nc1nccn(-c2cccc(F)c2)c1=O
  RP-LC retention time: 971 s

## Cc1ccc(-c2ccc(-n3nc(C)c(S(=O)(=O)NCC(C)C)c3C)nn2)cc1
  RP-LC retention time: 1160 s

## COc1ccc(-c2noc(C3CC(=O)N(c4ccc(C)c(C)c4)C3)n2)c(OC)c1 (configuration not stated)
  RP-LC retention time: 932 s

## Cc1nc(-c2cc(S(=O)(=O)N3CCCCC3C)c(C)s2)sc1C (configuration not stated)
  RP-LC retention time: 1220 s

## CC1CCN(C(=O)C2CCCN(c3ccnc(-c4ccc(F)cc4)n3)C2)CC1 (configuration not stated)
  RP-LC retention time: 706 s

## O=C1COc2ccc(S(=O)(=O)N3CCC(C(=O)Nc4ccc(OC(F)(F)F)cc4)CC3)cc2N1
  RP-LC retention time: 909 s

## O=C(Nc1cccn2c(C3CCC3)nnc12)c1cnccn1
  RP-LC retention time: 692 s

## CN1CCCc2cc(C(CNC(=O)C(=O)Nc3ccc4c(c3)OCO4)N3CCCCC3)ccc21 (configuration not stated)
  RP-LC retention time: 718 s

## O=C(NCc1ccc2c(c1)OCO2)c1cnn2c3c(cnc12)CCCCCC3
  RP-LC retention time: 1000 s

## CCOc1ccc(CN2C[C@@H](COC)[C@H](c3ccncc3)C2)cc1OC
  RP-LC retention time: 560 s

## Cc1ccc(C(=O)N2[C@H]3CC[C@@H]2c2cnc(-c4ccccc4)nc2C3)cn1
  RP-LC retention time: 689 s

## CCOc1cccc(CNC(=O)c2cn3cc(Cl)ccc3n2)c1
  RP-LC retention time: 886 s

## Cc1noc(C2CN(C(=O)Nc3cccc(Cl)c3C)CC23CCOCC3)n1 (configuration not stated)
  RP-LC retention time: 792 s

## COc1ccc(-c2nc(-c3ccc4nnn(C(C)C)c4c3)no2)cc1OC
  RP-LC retention time: 1020 s

## CN(Cc1ccco1)C(=O)c1ccc2ccnc(N3CCN(c4ccc(Cl)cc4)CC3)c2c1
  RP-LC retention time: 917 s

## Cc1noc(C2CN(C(=O)Nc3ccc(C)c(Cl)c3)CC23CCOCC3)n1 (configuration not stated)
  RP-LC retention time: 816 s

## O=C(CN1CCSc2ccccc21)NCCCN1CCN(Cc2ccccc2)CC1
  RP-LC retention time: 666 s

## Cc1cc(F)ccc1NS(=O)(=O)c1ccc(-c2nnc(C3CCC3)o2)o1
  RP-LC retention time: 963 s

## Cn1c(N2CCN(C(=O)c3ccccc3Cl)CC2)cc(=O)n(C)c1=O
  RP-LC retention time: 622 s

## CC(C)NC(=O)CN1C(=O)CSc2ccc(C(=O)N3CCCCC3)cc21
  RP-LC retention time: 673 s

## O=[N+]([O-])c1cn2c(n1)OC[C@@H](OCc1ccc(OC(F)(F)F)cc1)C2
  RP-LC retention time: 916 s

## CCn1nccc1C(=O)Nc1cc(-c2cc3c(OC)cccc3n2CC)[nH]n1
  RP-LC retention time: 879 s

## Cc1c(C2CCN(C(=O)c3ccc(Br)cc3)CC2)noc1N
  RP-LC retention time: 728 s

## CCc1ccc(NC(=O)c2cn(CC)c3ncccc23)cc1
  RP-LC retention time: 962 s

## CCN1C(=O)c2cc(S(=O)(=O)Nc3ccc(F)cc3)ccc2Oc2cccnc21
  RP-LC retention time: 957 s

## O=C(NCc1ccco1)c1ccc(Cn2nc(N3CCN(c4ccccc4)CC3)ccc2=O)o1
  RP-LC retention time: 780 s

## CN1CC(=O)NC(c2ccccc2F)C1=O (configuration not stated)
  RP-LC retention time: 513 s

## CN1C(=O)c2cccn2CC1C(=O)NCc1cccs1 (configuration not stated)
  RP-LC retention time: 654 s

## CCn1c(=O)c(-c2noc(C(=O)N3CCN(c4ccccn4)CC3)n2)nn(-c2ccc(F)cc2)c1=O
  RP-LC retention time: 676 s

## O=C(N[C@@H]1CN(c2ncccn2)C[C@H]1CO)c1ccco1
  RP-LC retention time: 566 s

## Cc1nnc(N2CCCC(C(=O)N3CCN(c4ccccn4)CC3)C2)c2nn(-c3ccccc3)c(C)c12 (configuration not stated)
  RP-LC retention time: 584 s

## CCOc1ccc(CC(=O)N2CCCn3nc(-c4ccc(Cl)cc4)cc3C2)cc1
  RP-LC retention time: 1020 s

## N#Cc1ccc(Cl)cc1NC(=O)C1CCN(c2ccc(-c3cccs3)nn2)CC1
  RP-LC retention time: 702 s

## COc1ccc(C(=O)Nc2cc(OC)nc(OC)n2)cc1
  RP-LC retention time: 798 s

## Brc1cccc(-c2nnc(Cc3nc(-c4ccccc4)no3)o2)c1
  RP-LC retention time: 1080 s

## Cc1noc2nc(C)n(CC(=O)Nc3ccc(F)cc3F)c(=O)c12
  RP-LC retention time: 767 s

## O=C(Cn1cncc(-c2nc(-c3ccccc3)cs2)c1=O)N1CCCC1
  RP-LC retention time: 789 s

## COc1ccc(N2CCN(C(=O)c3ccc4c(c3)N(C)C(=O)C3CCCCN43)CC2)cc1 (configuration not stated)
  RP-LC retention time: 832 s

## O=S(=O)(c1ccc(-c2nnc(C3CCCC3)o2)o1)N1CCN(c2ccccn2)CC1
  RP-LC retention time: 726 s

## CC(C)(C)NC(=O)N1CCC(CNS(=O)(=O)c2ccc(Br)s2)CC1
  RP-LC retention time: 818 s

## CC(=O)Nc1ccc(-c2noc(C3CCN(C(=O)Cc4c[nH]c5ccccc45)CC3)n2)cc1
  RP-LC retention time: 761 s

## CNC(=O)C1CCCN(c2nc3ncn(CC(=O)Nc4cccc(SC)c4)c(=O)c3s2)C1 (configuration not stated)
  RP-LC retention time: 669 s

## CC1CCCCN1CCNC(=O)CN1CCN(C(=O)Nc2ccc(Br)cc2)CC1=O (configuration not stated)
  RP-LC retention time: 610 s

## CC(C)n1cc(C2=CCN(S(=O)(=O)Cc3cccc(Cl)c3)CC2)c2cccnc21
  RP-LC retention time: 1130 s

## Cc1ccc(C)c(N2CCN(S(=O)(=O)c3cc(-c4cc(C(F)(F)F)[nH]n4)sc3C)CC2)c1
  RP-LC retention time: 1300 s

## Cc1oc(-c2[nH]ncc2C(=O)N2CCCC2)cc1S(=O)(=O)Nc1ccccc1
  RP-LC retention time: 685 s

## CN(CCCNC(=O)C1CCCN(c2ncc(-c3ccccc3)cn2)C1)c1ccccc1 (configuration not stated)
  RP-LC retention time: 826 s

## Cc1ccc2c(c1)C1CC(C)(O2)N(c2cccc(C(=O)O)c2)C(=O)N1 (configuration not stated)
  RP-LC retention time: 912 s

## COc1ccccc1-c1noc(Cn2c(=O)n(-c3ccc(C)cc3)c(=O)c3sccc32)n1
  RP-LC retention time: 911 s

## O=C(NCc1ccccc1OC(F)(F)F)c1ccc(OCC(=O)C2CC2)cc1
  RP-LC retention time: 876 s

## O=C(CCCc1ccccc1)N1CCN(c2ccc(-n3cccn3)nn2)CC1
  RP-LC retention time: 758 s

## CCn1cc(C(=O)NCCCOC(C)C)c(S(=O)(=O)N2CCN(c3cccc(Cl)c3)CC2)n1
  RP-LC retention time: 1060 s

## O=C(c1ccc(F)cc1)N1CCCC1c1nc(-c2cccc(C(F)(F)F)c2)no1 (configuration not stated)
  RP-LC retention time: 1090 s

## CCOc1cc(=O)n2c(c1C(=O)NCCCOC(C)C)CCCCC2
  RP-LC retention time: 646 s

## CC(C)c1ccc(-c2csc(NC(=O)c3ccncc3)n2)cc1
  RP-LC retention time: 989 s

## Cc1nc(Cn2cccc2C(=O)Nc2ccc(F)cc2F)no1
  RP-LC retention time: 793 s

## COc1cc(Cl)c(NC(=O)C2CC(=O)N(c3cccc(NC(C)=O)c3)C2)c(OC)c1 (configuration not stated)
  RP-LC retention time: 711 s

## COCCn1nc2n(c1=O)CCN(C(=O)c1cc(C3CC3)[nH]n1)CC2
  RP-LC retention time: 596 s

## O=C(NCc1cc(F)cc(F)c1)c1c(O)c2cccnc2n(-c2ccc(F)cc2)c1=O
  RP-LC retention time: 1180 s

## CCn1cc2c3c(cccc31)CN(C(=O)Nc1cccc(Cl)c1F)CC2
  RP-LC retention time: 1060 s

## Cn1cc(-c2cc3n(n2)CCC(=O)N3CC(=O)NCCC2=CCCCC2)c2ccccc21
  RP-LC retention time: 891 s

## CCCC(=O)N1CC(c2nc(-c3cccnc3)no2)C2(CCOCC2)C1 (configuration not stated)
  RP-LC retention time: 622 s

## Cc1ccc(C(=O)NCCc2sccc2C)cc1NC1=NC2CS(=O)(=O)CC2S1 (configuration not stated)
  RP-LC retention time: 685 s

## CC(C)C(=O)N1CCc2c(c(C(=O)N3CCC(C(=O)NC4CCCCCC4)CC3)nn2C)C1
  RP-LC retention time: 698 s

## Nc1nc(SCC(=O)Nc2cccc(-c3nc4ccccc4s3)c2)n[nH]1
  RP-LC retention time: 667 s

## Cc1cccc(-n2c(=O)c3c(cc(C)n3C)n(CC(=O)Nc3ccc(Cl)cc3)c2=O)c1
  RP-LC retention time: 923 s
